Laboratory results as given in patent US11419834B2, “Methods for treating diseases or infections caused by or associated with H. pylori using a halogenated salicylanilide” (Rhode Island Hospital, priority 2019, dated 2022).
Values after ≈ are worked out from the molar mass of the structure shown.

Tests used:
[1] = system: H. pylori bacteria; assay: Scanning electron microscopy of morphology; assay type: cell-based, Helicobacter pylori; settings: 2 hours
[2] = system: H. Pylori 51932; assay: Broth microdilution assay, MIC; assay type: cell-based; settings: Helicobacter pylori; strain H. Pylori 51932
[3] = system: H. pylori (strain 60190) adhered to AGS cells; assay: Adhesion of H. pylori to AGS cells; assay type: cell-based, Helicobacter pylori; settings: niclosamide 2×MIC, 20 hours, MOI=100
Experimental: (§1) The AGS (Gastric adenocarcinoma cell lines) cell line was used to examine inhibition of adhesion and invasion of H. pylori (strain 60190) by niclosamide, as described by Schmitt et al. (Front Cell Infect Microbiol. 2013; 3:93). The AGS cells were grown in Dulbecco's Modified Eagle Medium (DMEM, ex. Gibco), supplemented with 10% fetal bovine serum (Gibco) and 1% penicillin/streptomycin (Gibco) and maintained at 37° C. in 5% C02. Then, 5×10^5 cells in antibiotic and serum-free DMEM were seeded in 6-well plates 24 hours prior to infection. H. pylori bacteria at a multiplicity of infection (MOI)=100 were added and allowed to adhere to the surface of the AGS cells. Planktonic bacteria were removed after 2 hours and DMEM with niclosamide (2×MIC) was then added to the wells containing the AGS. The mammalian cells were lysed by 0.1% saponin after 20 hours of incubation and the adhered bacteria were then serially diluted, plated in Brucella agar supplemented with 10% FBS, and incubated as described above. A control arm of DMSO and a comparator using amoxicillin at a concentration of 0.1 μg/mL (10×MIC) was also assessed. […]

[4] = system: H. pylori reference strain 60190 (ATCC 49503); assay: Broth microdilution assay, MIC; assay type: cell-based; settings: Helicobacter pylori, ATCC49503, 72 h; H. pylori strain 60190; Müller-Hinton broth + 10% FBS, 3 days
[5] = system: AGS cells invaded by H. pylori; assay: Invasion, gentamicin protection assay; assay type: cell-based, Helicobacter pylori; settings: 2×MIC, 0.5 μg/mL, 20 hours, AGS cell lines
Experimental: as §1

[6] = system: H. pylori bacteria (strain 60190); assay: Multi-step mutation frequency (serial passage resistance study); assay type: cell-based, Helicobacter pylori
Experimental: To determine whether H. pylori can develop resistance against niclosamide, bacterial cells were suspended in MHB with 10% FBS at OD600=0.06 in the presence of serially diluted niclosamide and incubated, as described in the antibiotic susceptibility assays sub-section. The standard antibiotics amoxicillin and clarithromycin were used as controls. From the highest drug concentration allowing visible growth at sub-MIC concentration, aliquots were diluted (1:40) into fresh medium. These were used to inoculate the second set of serial drug dilutions as described by Dalhoff et al. (Clin Infect Ds. 2001 Mar. 15; 32 Suppl, 1:S16-22). After a 3-day incubation, H. pylori bacteria (strain 60190) were passaged sequentially over 30 days and the OD was recorded.

[7] = system: H. pylori cells (strain 60190); assay: Motility assay in soft agar; assay type: cell-based, Helicobacter pylori; settings: for H. pylori motility (swarming) versus concentration: niclosamide from 0.10 to 0.20 μg/mL (75-200 ng/mL in soft agar)

Compound: O=C(Nc1ccc([N+](=O)[O-])cc1Cl)c1cc(Cl)ccc1O [Niclosamide, niclosamide]
- morphology (helical shape) by SEM ([1]; 1× MIC): shortened
- morphology by SEM ([1]; 4× and 8× MIC): Cocco-bacillary
- effect on bacterial flagella by SEM ([1]; niclosamide treatment): flagellar deformation
- MIC [2]: 0.5 µg/mL (≈ 1.53 µM)
- reduction of CFU/mL counts of adhered bacteria [3]: 3 log10
- MIC [4]: 0.25 µg/mL
- reduction of intracellular CFU [5]: 3 log10 CFU
- development of H. pylori resistance ([6]; 30 day resistance studies): no H. pylori resistance to niclosamide developed
- change in MIC through at least 10 passages ([6]; at least 10 passages): remained constant
- increase in MIC during continuous passage ([6]; passaged sequentially over 30 days): remained unchanged
- H. pylori motility (swarming) versus concentration [7]: impeded H. Pylon swarming movement in a dose-dependent manner
- H. pylori motility (swarming) versus concentration ([7]; listed as niclosamide): decreased in a dose-dependent manner
- H. pylori motility ([7]; sub-MIC (0.2 μg/mL)): abated
